The test system of assay [1] is neonatal cardiac fibroblast. The experiment in a line: Multiplex cytokine assay (Procarta) in cardiac fibroblast supernatants. The format is cell-based, Wistar rats. The note with it: 1 or 10 µmol/L SalA, 24 h. The procedure:
(§1) Primary cardiac fibroblast was obtained from neonatal rats and National Institutes of Health (NIH) Guide for the Care and Use of Laboratory Animals was followed throughout. Wistar rats (2–4 day old) were sacrificed by cervical dislocation; ventricles were minced and digested with 0.1% trypsin at 37°C for 8 min. The liberated cells were collected by centrifugations; non-digested chunk materials were further digested in 0.1% trypsin for an additional 8 min. This digestion procedure was repeated 3–4 times. All the liberated cells were pelleted by centrifugation at 1,000 rpm for 10 min, re-suspended in DMEM containing 10% fetal bovine serum (FBS), and cultured in a 100-mm noncoated culture flask at 37°C with 5% CO2 for 2 h. Adherent cardiac fibroblasts were collected and maintained in DMEM supplemented with 10% FBS, 100 U/mL penicillin, 100 µg/mL streptomycin [12]. Cardiac fibroblasts were treated by vehicle (Con); 200 nmol/L MMP-9 CD (MMP-9); 200 nmol/L MMP-9 CD plus 1 µmol/L SalA [MMP-9/SalA(1)]; or 200 nmol/L MMP-9 CD plus 10 µmol/L SalA [MMP-9/SalA(10)] for the following research. All the detections were conducted after 24 h treatment.
Procarta cytokine profiling kit (Panomics, CA, USA) was used to simultaneously detect 3 different rat cytokines in the cell culture supernatants, according to manufacturer’s instruction. Briefly, 50 µL antibody beads were added to each well of the Filter plate, washed with Wash buffer. Fifty microliter cell culture supernatant was then added to each well, incubated for at least 1 h at room temperature, and washed with Wash buffer. Afterwards, 25 µL per well of the Detection Antibody was added and the Filter plate was shaken at 500 rpm for 30 min at room temperature. After adding Sreptavidin-PE, the signals were detected using a Luminex 200 instrument (Bio-Rad, CA, USA). The cytokines included in the present study were intercellular adhesion molecule (ICAM), interleukin-6 (IL-6), tumor necrosis factor-α (TNF-α and soluble vascular cell adhesion molecule-1 (sVCAM-1).

Assay [2] deals with neonatal cardiac fibroblasts. Put plainly: Myofibroblast transformation (α-SMA immunofluorescence) induced by MMP-9 CD. Conditions: 1 or 10 µmol/L SalA, 200 nmol/L MMP-9 CD, 24 h. The format is cell-based, Wistar rats. The method, then: as §1
α-SMA expression was used to evaluate the effect of SalA on myofibroblast transformation from fibroblast induced by MMP-9 CD. Neonatal cardiac fibroblasts were cultured on glass slides until reaching ∼70% confluence. […]

Assay [3] concerns neonatal cardiac fibroblast. The experiment in a line: Transwell migration of neonatal cardiac fibroblast induced by MMP-9 CD. In kind it is cell-based, Wistar rats. The note with it: 1 µmol/L SalA, 200 nmol/L MMP-9 CD, 24 h (MMP-9 alone 85.2±12.4, Con 25.9±2.1). The method, then: as §1, with “Cardiac fibroblasts were treated by vehicle (Con); 200 nmol/L MMP-9 CD (MMP-9); 200 nmol/L MMP-9 CD plus 1 µmol/L SalA [MMP-9/SalA(1)]; or 200 nmol/L MMP-9 CD plus 10 µmol/L SalA [MMP-9/SalA(10)] for the following research. All the detections were conducted after 24 h treatment.” left out
Transwell assay was employed to evaluate effects of SalA on neonatal cardiac fibroblast migration induced by MMP-9 CD. […] After incubating for 24 h, migrated cells (in the lower side of migration chamber) were stained with 0.1% crystal violet and counted with a microscope at 200 X magnification. Five to six view fields were counted on each membrane. Migration is expressed as the mean value of total number of migrated cells per field.

Assay [4] addresses T1, MMP-9 CD (Homo sapiens, UniProt P14780, DEL217-390).
T1 construct: corresponding to residues 107–216 and 391–444; made in house
T1 sequence (P14780 with tags, fused parts or gaps DEL217-390 limits assumed): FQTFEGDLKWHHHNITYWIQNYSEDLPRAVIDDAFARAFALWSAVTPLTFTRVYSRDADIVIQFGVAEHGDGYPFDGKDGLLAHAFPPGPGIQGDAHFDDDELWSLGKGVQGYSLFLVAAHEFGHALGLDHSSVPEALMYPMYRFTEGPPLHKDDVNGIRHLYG
The experiment in a line: Real time binding by surface plasmon resonance (Biacore). The note with it: steady state affinity fit model; immobilized MMP-9 CD, 25°C; read-out: equilibrium dissociation constant (KD). The method, then:
DNA fragments encoding the catalytic domain of MMP-9 (MMP-9 CD, corresponding to residues 107–216 and 391–444) were constructed and subcloned into a pET-15b vector (Novagen). […]. Surface plasmon resonance analysis was performed using Biacore 3000 (Biacore AB). In brief, MMP-9 CD protein (5.8 µmol/L) in 10 mmol/L sodium acetate buffer (pH 3.73) was covalently immobilized on the hydrophilic carboxymethylated dextran matrix of the CM5 sensor chip (BIAcore AB) using standard primary amine coupling procedure. Phenolic acid at various concentrations in HBS-EP running buffer (10 mmol/L HEPES pH 7.4, 150 mmol/L NaCl, 3.4 mmol/L EDTA and 0.005% surfactant P20) were injected at a constant flow rate of 30 µL/min at 25°C. All data were analyzed by BIAevaluation software and the sensorgrams were processed by automatic correction for nonspecific bulk refractive index effects.
On the technique in general: SPR reads the build-up and loss of mass on a sensor chip optically.

Molecules are shown by their SMILES.

On to `O=C(/C=C/c1ccc(O)c(O)c1/C=C/c1ccc(O)c(O)c1)O[C@H](Cc1ccc(O)c(O)c1)C(=O)O` [SalA, salvianolic acid A], for which, in assay [1], the “ICAM secretion induced by MMP-9 CD” value is “inhibition”, the “IL-6 secretion induced by MMP-9 CD” value is “inhibition”, the “TNF-α secretion induced by MMP-9CD” value is recorded as “No significant inhibitory effect” and the “sVCAM-1 secretion induced by MMP-9 CD” value is reported as “inhibition”. Moreover, the “α-SMA up-regulation (myofibroblast transformation) induced by MMP-9 CD” value in assay [2] is recorded as “reversed the effects of MMP-9 CD”. Besides, the migrated cells in assay [3] is 45.3±9.1 cells per field. Also, the Kd (commonly the constant that tells how readily two partners part at equilibrium) in assay [4] is 0.8 µM.

The record behind these values is paper PMC3606118, “Salvianolic Acid A, a Novel Matrix Metalloproteinase-9 Inhibitor, Prevents Cardiac Remodeling in Spontaneously Hypertensive Rats” (PLoS ONE, 2013).
